In patent publication US20250046404A1, “SYSTEMS AND METHODS RELATING TO A MACHINE LEARNING PREDICTION MODEL FOR PREDICTING MOLECULAR TARGETS OF SMALL MOLECULES” (KBR WYLE SERVICES, LLC, priority 2023, published 2025):

Legend:
miR-451 [1] = assay: Zebrafish embryo erythrocyte accumulation with PTU, O-dianisidine hemoglobin stain; type: in vivo; details: for hemoglobinized cells / blood accumulation (O-dianisidine staining): 2-day-old embryos, lateral view, tail region, upon drug treatment
Protocol: Zebrafish embryos were incubated with different drug candidates predicted by sChemNET in combination with phenyl-thiourea (PTU), a chemical known to induce anemia due to oxidative stress when miR-451 activity is impaired, but not in wild-type embryos. 48 hours after fertilization, embryos display robust blood circulation. At this stage, the accumulation of mature erythrocytes can be easily assessed in transparent embryos using O-dianisidine, a hemoglobin-specific stain. Drugs impairing miR-451 activity induce anemia, while miR-451 boosting drugs will increase erythrocyte production (blood circulation).
Ventral images of 2-day-old embryos stained with O-dianisidine reveal hemoglobinized cells (brown staining).) for wild-type embryos and those treated with docetaxel, β-elemene and α-calcidol. Blood accumulated in the ventral region (ducts of Cuvier).

miR-144 = assay: Effect on levels of miR-144; type: in vivo, Zebrafish; details: erythrocyte specific miR-144
Excerpt: (§1) Either mechanism of action may be valid, as both pathways will allow the desired output, which complements miRNA activity.
(§2) Dicer processes miR-144, but at the same time is a target of miR-144 (PMID: 32191872), effectively canceling a potential drug-induced increase in miR-144 output.

miR-451 [2] = assay: Effect on levels of miR-451; details: zebrafish, in vivo
Excerpt: as §1, §2

SMILES | hemoglobinized cells / blood accumulation (O-dianisidine staining) (miR-451 [1]) | blood production (miR-451 [1]; zebrafish, in vivo) | levels of miR-144 (cluster partner of miR-451) (miR-144) | levels of miR-451 (miR-451 [2])
C=C[C@]1(C)CC[C@@H](C(=C)C)C[C@H]1C(=C)C [β-elemene] | accumulation of the excess of blood in the tail region |  |  | 
C=C1/C(=C\C=C2/CCC[C@]3(C)[C@@H]([C@H](C)CCCC(C)C)CC[C@@H]23)C[C@@H](O)C[C@@H]1O [α-Calcidol] | accumulation of the excess of blood in the tail region | boosts blood production | does not directly affect the levels | does not directly affect the levels
CC(=O)O[C@@]12CO[C@@H]1C[C@H](O)[C@@]1(C)C(=O)[C@H](O)C3=C(C)[C@@H](OC(=O)[C@H](O)[C@@H](NC(=O)OC(C)(C)C)c4ccccc4)C[C@@](O)([C@@H](OC(=O)c4ccccc4)[C@H]21)C3(C)C [docetaxel] | accumulation of the excess of blood in the tail region |  |  | 
